Laboratory results published in the Kinase Knowledgebase extract (Sharma et al. 2016).

Target: CDK2 (UniProt P24941)
Experiment: Enzyme Assay

| IC50 [nM] | Structure (SMILES) |
| --- | --- |
| < 1000 | CN(C)c1ccc(Nc2nccc(-c3cnn4nc(N5CCOCC5)ccc34)n2)cc1 |
| < 100 | Cc1cc(Nc2nccc(-c3cnn4ncccc34)n2)ccc1N1CCN(C)CC1 |
| < 100 | CN1CCN(c2ccc(Nc3nccc(-c4cnn5ncccc45)n3)cc2Cl)CC1 |
| < 100 | Clc1ccc(Nc2nccc(-c3cnn4ncccc34)n2)cc1 |

Continued, compound first:

| Structure (SMILES) | IC50 [nM] |
| --- | --- |
| N#Cc1cccc(Nc2nccc(-c3cnn4ncccc34)n2)c1 | < 100 |
| c1cc(Nc2nccc(-c3cnn4ncccc34)n2)cc(-c2cnco2)c1 | < 100 |
| FC(F)(F)c1cccc(Nc2nccc(-c3cnn4ncccc34)n2)c1 | < 100 |
| NS(=O)(=O)c1ccc(Nc2nccc(-c3cnn4ncccc34)n2)cc1 | < 100 |
| Clc1ccccc1-c1ccc2c(-c3ccnc(NC4CC4)n3)cnn2n1 | < 1000 |
| O=[N+]([O-])c1cccc(Nc2nccc(-c3cnn4ncccc34)n2)c1 | < 100 |
| O=C1CCCN1CCCNc1nccc(-c2cnn3ncccc23)n1 | < 100 |
| COc1ccc2c(-c3ccnc(NC4CC4)n3)cnn2n1 | < 1000 |
